Assays:
Type in all cases: physicochemical
[1] = Compressibility: tablets on instrumented Carver press, no excipients, three-point bend stress; details: current experimental conditions
Procedure: Compressibility of a second sample of magnesium citrate glycinate was evaluated using an instrumented Carver press. Approximately 1.6 g, 5 mm thick tablets were compressed using the 0.4″×0.9″ rectangular tooling. No excipients were used. The sides of the tooling were slightly dusted with magnesium stearate in order to facilitate tablet ejection and eliminate sticking. The tablets were subjected to a three-point bend stress using a TA.XT2-Plus texture analyzer (from Stable Micro Systems of Surrey, England). Flexural strength and young modulus of the compact were measured. In addition, compact density was calculated from the weight and size measurements of the tablets.
An attempt was made to compare compressibility of magnesium citrate glycinate with those of individual salts, magnesium citrate tribasic and magnesium bis-glycinate.

[2] = Apparent density measurement
Procedure: In addition, particle size distribution and apparent density of di-magnesium citrate glycinate co-salt were measured.

[3] = Aqueous stability of 10% w/w solution standing for 24 hours, visual inspection; details: 10% w/w solution in water

| Structure (SMILES) | Compressibility, tablet formation [1] | Apparent density [2] [kg/m^3] | Aqueous stability, change of clear and colorless solution [3] |
| --- | --- | --- | --- |
| NCC(=O)[O-].NCC(=O)[O-].[Mg+2] [magnesium bis-glycinate] | no cohesive tablets were obtained |  |  |
| NCC(=O)[O-].O=C([O-])CC(O)(CC(=O)[O-])C(=O)[O-].[Mg+2].[Mg+2] [magnesium citrate glycinate co-salt] |  | 1740 | no change |
| O=C([O-])CC(O)(CC(=O)[O-])C(=O)[O-].O=C([O-])CC(O)(CC(=O)[O-])C(=O)[O-].[Mg+2].[Mg+2].[Mg+2] [magnesium citrate tribasic] | no cohesive tablets were obtained |  |  |

Reference: patent US11148990B2 (JOST CHEMICAL CO., priority 2019, dated 2021)
